Measurements from US20070265238A1, “METHOD FOR ACCELERATING REENTRAINMENT OF A CIRCADIAN RHYTHM” (priority 2006, published 2007).

System: body temperature rhythms
Test: Reentrainment of body temperature circadian rhythm after eastward jet travel across 6 time zones (Detroit to Vienna)
Type: in vivo, human
Details: applied beneath nostrils each morning on awakening; for length of time to reestablish stable body temperature rhythms: women, vs control vehicle (mineral oil and clove oil), FIG. 1
Protocol: This experimental involved 15 subjects who were traveling from Detroit, Michigan to Vienna, Austria by air, a journey which spanned 6 time zones. The subjects comprised 8 women and 5 men aged 18-19 and 2 women […]. Two groups of compositions were prepared. The first comprised an experimental formulation containing 20 micrograms of 4,16-androstadien-3-one dissolved in a mixture of mineral oil and clove oil. A second composition comprising a control/placebo consisted of the mineral oil and clove oil. The 2 compositions were each packaged in 5 ml and supplied to selected test subjects along with cotton-tipped applicators. The test and control materials were randomly distributed, and participants were unaware of which composition they had obtained.
Upon arrival in Vienna, each participant was directed to place a small amount of their particular composition directly beneath their nostrils with a new cotton applicator immediately upon awakening each morning. The participants were directed to allow the compositions to remain on their skin for at least an hour.
External temperature monitors (iButton, Inc., Pittsburgh, Pa.) were affixed to each of the subjects with a gauze protective layer between the skin and the monitoring device. The monitors were covered with neoprene material for insulation against environmental temperature interference and held in place with a waterproof medical bandage which was changed every 3 days or as necessary. The monitoring devices were set to acquire temperature every 10 minutes throughout the entire period of the experiment and for a 3-day period prior to travel. Participants also kept daily event logs to monitor the timing of activities that could influence temperature data such as sleep and wake times, showers, exercise and naps. […]
Data were analyzed to determine the length of time needed for core temperature rhythms to reentrain with the new time schedule, returning to a phase angle of entrainment similar to that recorded before travel. […]

Structure (SMILES): C[C@@]12C=CC[C@H]1[C@@H]1CCC3=CC(=O)CC[C@]3(C)[C@H]1CC2 [4,16-androstadien-3-one]
- reentrainment rate of body temperature rhythms (men, vs control vehicle): no effects
- length of time to reestablish stable body temperature rhythms: accelerate reestablishment of body temperature rhythms
- length of time to reestablish stable body temperature rhythms (listed as pheromone): reentrained significantly faster
